Assay results taken from article PMC10187093, “Synthesis, in silico modelling, and in vitro biological evaluation of substituted pyrazole derivatives as potential anti-skin cancer, anti-tyrosinase, and antioxidant agents” (Journal of Enzyme Inhibition and Medicinal Chemistry, 2023).
Where two headings read alike, the source gives them in different places.

How the values were obtained:
A375 = experiment: MTT antiproliferative/cytotoxicity assay, A375; assay type: cell-based, human; conditions: melanoma, MTT, 48 h, read-out: IC50 A375
Description: (§1) Human-derived GFP-expressing melanoma A375 and epidermoid carcinoma A431 cell lines were purchased from Angio-Proteomie (Boston, MA). Human melanoma carcinoma SK-MEL-28 and human immortalised keratinocytes (HaCaT) cell lines were acquired from American Type Culture Collection (ATCC; Manassas, VA). Human cutaneous SCC cell line SCC-12[192] was generously provided by Dr. James G. Rheinwald to Dr. Tatiana Efimova. Except SK-MEL-28, which was cultured in an RPMI-1640 medium supplemented with 5% FBS, all other human immortalised cell lines were grown and maintained in DMEM containing varying percentages of FBS; 5% FBS for A431, SCC-12, and HaCaT lines, and 10% FBS for A375. All culture media were routinely supplemented with 1% PEST 100X (100 U/mL penicillin, 100 μg/mL streptomycin), and cells were cultured in incubators maintained at 37 °C under an atmosphere of 95% humidity, 20% O2, and 5% CO2. The growth media of incubated cells were changed every 2–3 days until they attained 70–80% confluence, after which they were sub-cultured for experiments and re-passaging. DMSO was used as the vehicle to prepare a 10 mM stock solution of the test compounds.
(§2) Stock solutions (10 mM) were prepared by dissolving each compound to be screened in DMSO. From these stock solutions, escalating concentrations were prepared using the corresponding cell growth media as a diluent, and the cells (65–75% confluent) were treated with (0–40 µM) or without the drug in sext- to octuplicate and incubated for 48 h. All treatment protocols and controls were prepared as previously described.
(§3) The potency and cytotoxicity of the test compounds against two cutaneous melanoma (A375 and SK-MEL-28) and two non-melanoma (A431 and SCC-12) SC cell lines in addition to a control immortalised normal human epidermal keratinocytes (HaCaT) cell line were assessed by MTT assay as previously described.

GFP-A431 = experiment: MTT antiproliferative/cytotoxicity assay, A431; assay type: cell-based, human; conditions: for IC50: read-out: IC50 GFP-A431; for selectivity index (SI) A431: IC50 HaCaT divided by IC50 A431
Description: (§4) Human-derived GFP-expressing melanoma A375 and epidermoid carcinoma A431 cell lines were purchased from Angio-Proteomie (Boston, MA). Human melanoma carcinoma SK-MEL-28 and human immortalised keratinocytes (HaCaT) cell lines were acquired from American Type Culture Collection (ATCC; Manassas, VA). […] The growth media of incubated cells were changed every 2–3 days until they attained 70–80% confluence, after which they were sub-cultured for experiments and re-passaging. DMSO was used as the vehicle to prepare a 10 mM stock solution of the test compounds.
(§5) Stock solutions (10 mM) were prepared by dissolving each compound to be screened in DMSO.

SCC-12 = experiment: MTT antiproliferative/cytotoxicity assay, SCC-12; assay type: cell-based, human; conditions: for IC50: non-melanoma, MTT, 48 h, read-out: IC50 SCC-12; for selectivity index (SI) SCC-12: IC50 HaCaT divided by IC50 SCC-12
Description: as §4, §5

mushroom tyrosinase = target: T1, mushroom tyrosinase (Agaricus bisporus, UniProt C7FF04); experiment: In vitro mushroom tyrosinase inhibition assay; assay type: biochemical; conditions: for inhibition at 500 µM: single-concentration screen, read-out: % Inhibition of tyrosinase
T1 construct: purchased Sigma-Aldrich Chemical Company (St. Louis, MO) and MP Biomedicals (Irvine, CA)
T1 sequence (C7FF04 1-392 limits assumed): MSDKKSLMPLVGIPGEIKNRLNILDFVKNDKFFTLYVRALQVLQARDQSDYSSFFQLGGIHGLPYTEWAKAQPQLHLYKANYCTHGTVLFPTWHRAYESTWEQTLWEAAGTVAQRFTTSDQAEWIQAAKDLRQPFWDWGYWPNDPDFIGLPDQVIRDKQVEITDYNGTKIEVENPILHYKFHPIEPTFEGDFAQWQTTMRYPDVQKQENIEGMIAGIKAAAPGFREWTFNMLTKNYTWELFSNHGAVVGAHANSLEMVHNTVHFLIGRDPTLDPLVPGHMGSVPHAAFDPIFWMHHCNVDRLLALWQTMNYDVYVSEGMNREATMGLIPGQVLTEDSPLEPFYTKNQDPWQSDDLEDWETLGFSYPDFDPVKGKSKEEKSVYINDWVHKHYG
Description: The anti-tyrosinase potential of all the synthesised derivatives was determined by an enzymatic tyrosinase inhibition assay based on their ability to inhibit the substrate, L-tyrosine, from binding to the tyrosinase enzyme. […] Test samples were dissolved in DMSO at a concentration of 10 mM and then diluted to different concentrations with phosphate buffer (0.1 M, pH 6.8). Each well contained 40 µL of the sample with 80 µL of phosphate buffer solution (0.1 M, pH 6.8), 40 µL of tyrosinase enzyme (100 units/mL), and 40 µL L-tyrosine (2.5 mM). The mixture was incubated for 30 min at room temperature, and absorbance was measured at 490 nm. Each sample was accompanied by a sample blank containing all components except tyrosinase. […] The percentage of tyrosinase inhibition was calculated as follows: ((ΔAcontrol – ΔAsample)/ΔAcontrol) × 100. IC50 values denoted the sample concentration required to inhibit 50% tyrosinase activity (Table S1).

HaCaT = experiment: MTT cytotoxicity assay, noncancerous HaCaT keratinocytes; assay type: cell-based, human; conditions: control noncancerous keratinocytes, MTT, 48 h, read-out: IC50 HaCaT
Description: as §1, §2, §3

[1] = DPPH free radical scavenging assay; conditions: for Percent Scavenging (DPPH): 1 mM
Description: An initial screen was done of all 25 derivatives at a concentration of 1 mM. […] Methanol was used as the diluent, and 100 µL of DPPH (200 µM; Sigma-Aldrich, St. Louis, MO) was added to each well. […] The scavenging capacity (SC) was calculated as SC% = ((ΔAcontrol – ΔAsample)/ΔAcontrol) × 100%, where ΔAcontrol was the absorbance of the reagent blank, and ΔAsample was the absorbance of the test samples. The control contained all reagents except the compounds, and all tests were performed in triplicate. Quercetin served as a positive control. The DPPH methanolic solution (1 mL) mixed with DMSO (5 µL) served as a negative control.

SK-MEL-28 = experiment: MTT antiproliferative/cytotoxicity assay, SK-MEL-28; assay type: cell-based, human; conditions: melanoma, MTT, 48 h, read-out: IC50 SKMEL-28
Description: as §1, §2, §3

[2] = Homo sapiens, A-431, 48 h, non-melanoma, MTT, 48 h
[3] = > 500 = not biologically relevant, read-out: IC50 Value, mushroom tyrosinase inhibition (Table S1)
[4] = N.A. = No Activity, > 1000 = not biologically relevant, read-out: IC50 Value, DPPH antioxidant activity (Table S4)
[5] = read-out: IC50 DPPH radical scavenging

| Structure (SMILES) | IC50 (A375; Homo sapiens, A-375, 48 h) | IC50 (GFP-A431; [2]) | selectivity index (SI) A431 (GFP-A431) | IC50 (SCC-12; Homo sapiens, SCC12, 48 h) | selectivity index (SI) SCC-12 (SCC-12) | inhibition at 500 µM (mushroom tyrosinase) | IC50 (mushroom tyrosinase; [3]) | IC50 (HaCaT; Homo sapiens, HaCaT) | Percent Scavenging (DPPH) [1] | IC50 (SK-MEL-28; Homo sapiens, SK-MEL-28, 48 h) | further results |
| --- | --- | --- | --- | --- | --- | --- | --- | --- | --- | --- | --- |
| Cc1cc(-c2ccccc2)n(-c2ccc(Cl)cc2)n1 [P17, 1-(4-Chlorophenyl)-3-methyl-5-phenyl-1H-pyrazole] | 44.5 ± 3 µM | 19.7 ± 0.8 µM | 3.7 | 23.4 ± 1.7 µM | 3.1 | 95.6 ± 1.1% | 165 µM | 72.4 ± 6 µM | -23.30% | 34.2 ± 3.9 µM |  |
| O=C1CC(c2ccc(Br)cc2)=NN1c1ccccc1 [P24] | 56.4 ± 1.7 µM | 18.6 ± 0.9 µM | 3.3 | 141 ± 3.9 µM | 0.4 | 35.2% | > 500 µM | 60.4 ± 3.2 µM | 75.14% | 54.1 ± 1.9 µM | IC50 [1, 4]: 444 µM |
| Cc1onc2c1CCc1ccccc1-2 [P12, 3-Methyl-4,5-dihydronaphtho[1,2-c]isoxazole] | 73.5 ± 3.8 µM | 55.5 ± 3.5 µM |  | 32.6 ± 2.1 µM |  | 69.7 ± 5% | 336 µM | 32.6 ± 2.4 µM | -1.13% | 24 ± 2 µM |  |
| COc1ccc(-n2nc(C)cc2-c2ccccc2)cc1 [P18, 1-(4-Methoxyphenyl)-3-methyl-5-phenyl-1H-pyrazole] | 48 ± 2.1 µM | 25.9 ± 0.9 µM | 2.0 | 21.9 ± 0.2 µM | 2.3 | 92.2 ± 3.7% | 156 µM | 49.6 ± 1.5 µM | -24.28% | 19.3 ± 2.4 µM |  |
| Cc1cc(-c2ccccc2)no1 [P11, 5-Methyl-3-phenylisoxazole] | 57.8 ± 6.5 µM | 43.7 ± 2.7 µM | 2.6 | 44.6 ± 1.3 µM | 2.6 | 88 ± 0.3% | 173 µM | 116 ± 10.1 µM | -27.39% | 34.5 ± 1.2 µM |  |
| Cc1n[nH]c2c1CCC2 [P2, 3-Methyl-1,4,5,6-tetrahydrocyclopenta[c]pyrazole] | 54.3 ± 1.6 µM | 43.9 ± 2.1 µM |  | 246 ± 37.3 µM |  | 20.8% | > 500 µM | 44.2 ± 1.1 µM | -5.84% | 42.6 ± 1.5 µM |  |
| Cc1cc(-c2ccccc2)n(-c2ccc(S(N)(=O)=O)cc2)n1 [P19, 4-(3-Methyl-5-phenyl-1H-pyrazol-1-yl)benzenesulfonamide] | 47.1 ± 4.2 µM |  |  |  |  | 21.2% | > 500 µM | 57 ± 1.3 µM | -18.51% | 40.5 ± 3 µM |  |
| O=C1CC(c2ccc(Br)cc2)=NN1c1ccc(Br)cc1 [P22] | 29 µM | 13 µM | 3.8 | 19 µM | 2.6 | 46.9% | > 500 µM | 47.6 ± 1.6 µM | 77.86% | 31 µM | IC50 (A375): 28.7 ± 1.2 µM; IC50 (GFP-A431; non-melanoma, MTT, 48 h): 12.6 ± 1.6 µM; IC50 (SCC-12): 18.7 ± 1.4 µM; IC50 [1, 4]: 276 µM; IC50 (SK-MEL-28): 31.3 ± 2.4 µM |
| Cc1cc(-c2ccccc2)n(-c2ccccc2)n1 [P14, 3-Methyl-1,5-diphenyl-1H-pyrazole] | 25.8 ± 2.7 µM | 17.8 ± 0.5 µM | 2.0 | 42.5 ± 2.8 µM | 0.8 | 97.4 ± 0.2% |  | 35.1 ± 2.8 µM | -23.93% | 33.3 ± 1.7 µM | IC50 (mushroom tyrosinase; L-tyrosine substrate, read-out: IC50 tyrosinase inhibition): 15.9 µM; DPPH antioxidant activity (in words) [1]: inactive |
| c1ccc(-c2cc(-c3ccccc3)n(-c3ccccc3)n2)cc1 [P13, 1,3,5-Triphenyl-1H-pyrazole] | 93.4 ± 6.4 µM | 181 ± 4.7 µM |  | 52.8 ± 2.2 µM |  | 7.66% | > 500 µM | 91.6 ± 4.1 µM | 19.44% | 154 ± 2.9 µM | IC50 [1, 4]: > 1000 µM |
| O=C1CC(c2ccc(Br)cc2)=NN1c1ccc(C(F)(F)F)cc1 [P23] | 31.2 ± 1.5 µM | 23.9 ± 1 µM | 1.7 | 21.7 ± 1.9 µM | 1.9 | 37.6% | > 500 µM | 40.5 ± 1.5 µM | 77.61% | 27.4 ± 2.3 µM | IC50 [1, 4]: 196 µM |
| OC[C@H]1O[C@@H](Oc2ccc(O)cc2)[C@H](O)[C@@H](O)[C@@H]1O [arbutin, 4-hydroxyphenyl β-D-glucopyranoside, reference compound] |  |  |  |  |  | 59 ± 0.4% |  |  |  |  |  |
| Cc1[nH]nc(-c2ccccc2)c1Cl [P4, 4-Chloro-5-methyl-3-phenyl-1H-pyrazole] | 58.4 ± 4.5 µM | 70.8 ± 6.2 µM |  | 216 ± 13.4 µM |  | 68.7 ± 0.4% | 197 µM | 76.1 µM | -0.84% | 62.3 ± 2.7 µM |  |
| FC(F)(F)c1cc(-c2ccccc2)n(-c2ccccc2)n1 [P15, 1,5-Diphenyl-3-(trifluoromethyl)-1H-pyrazole] | 58.5 ± 3.4 µM | 42.9 ± 1 µM |  | 98 ± 5.5 µM |  | 32.2% | > 500 µM | 53.7 ± 3.1 µM | -23.36% | 36 ± 3.9 µM |  |
| Cc1ccc(-c2cc(C(F)(F)F)nn2-c2ccc(S(N)(=O)=O)cc2)cc1 [Celecoxib, celecoxib, reference compound] | 27 µM |  |  |  |  |  |  | 49.8 ± 8.2 µM |  |  | IC50 (A375): 26.8 ± 2.7 µM; IC50 (GFP-A431; Homo sapiens, A-431, 48 h): 7.4 µM; IC50 (SK-MEL-28; Homo sapiens, SK-MEL-28): 11.4 ± 2.4 µM |
| N.N.[Cl][Pt][Cl] [Cisplatin, cisplatin, reference compound] |  |  |  |  |  |  |  |  |  |  | IC50 (A375): 1.49 ± 0.44 µM; IC50 (GFP-A431; non-melanoma, MTT, 48 h): 7.7 ± 0.3 µM; IC50 (SCC-12): 4.4 ± 0.2 µM; IC50 (HaCaT): 3.4 ± 0.4 µM; IC50 (SK-MEL-28): 14.2 ± 0.24 µM |
| O=C1O[C@H]([C@@H](O)CO)C(O)=C1O [ascorbic acid, reference compound] |  |  |  |  |  |  |  |  |  |  | IC50 [1, 5]: 25.2 ± 1.4 µM |
| O=c1c(O)c(-c2ccc(O)c(O)c2)oc2cc(O)cc(O)c12 [quercetin, reference compound] |  |  |  |  |  |  |  |  | 60% |  | Percent Scavenging (DPPH) ([1]; listed as Quercetin): 60.83% |
| Cc1cc(C(C)(C)C)c(O)c(C(C)(C)C)c1 [BHT, butylated hydroxytoluene, reference compound] |  |  |  |  |  |  |  |  |  |  | IC50 [1, 5]: 285 ± 7 µM |
